This is an account of results in patent US5616327A (SRI International, priority 1994, dated 1997).

Where no end group is shown, it is not given here.

This assay has as its target RNA polymerase-RNA complex ("cores" with transcriptase activity) (Influenza A virus, UniProt P03428+P03431+P03433). Nature of the assay: biochemical. Set-up: species or system Influenza virus A/PR/8/34. Conditions: for inhibition at 0.05 µM / inhibition at 0.5 µM / inhibition at 5 µM / inhibition at 50 µM: read-out: % Inhibition (inhibition of polymerase by peptides).

Usually inhibition stands for the drop in the measured response relative to a control, in per cent. `CC(C)C[C@H](NC(=O)CNC(=O)[C@H](C)NC(=O)[C@H](CO)NC(=O)[C@H](CO)NC(=O)[C@H](CO)NC(=O)[C@@H]1CCCN1C(=O)[C@H](Cc1c[nH]cn1)NC(=O)[C@@H](NC(=O)CN)[C@@H](C)O)C(=O)N[C@@H](CCCCN)C(=O)N[C@@H](CC(N)=O)C(=O)N[C@@H](CC(=O)O)C(=O)N[C@@H](CC(C)C)C(=O)N[C@@H](CC(C)C)C(=O)N[C@@H](CCC(=O)O)C(=O)N[C@@H](CC(N)=O)C(=O)O` [Peptide 5]: the inhibition at 0.05 µM is 16%, the inhibition at 0.5 µM is 14%, the inhibition at 5 µM turned out to be 1% and the inhibition at 50 µM was -30%.
Regarding KREITFHGAKEISLS [Peptide 3], the inhibition at 0.05 µM amounted to 9%, the inhibition at 0.5 µM stood at 8%, the inhibition at 5 µM is -9% and the inhibition at 50 µM is -30%.
For LTVPSERGLQRRR [Peptide 1] the same measures were 3%, 2%, 9% and 35%.
Regarding `CC[C@H](C)[C@H](NC(=O)[C@H](CCC(N)=O)NC(=O)[C@@H](N)CCC(=O)O)C(=O)N[C@@H](C)C(=O)N[C@@H](CC(=O)O)C(=O)N[C@@H](CO)C(=O)N[C@@H](CCC(N)=O)C(=O)N[C@@H](Cc1c[nH]cn1)C(=O)N[C@@H](CCCNC(=N)N)C(=O)N[C@@H](CO)C(=O)N[C@@H](Cc1c[nH]cn1)C(=O)N[C@@H](CCCNC(=N)N)C(=O)N[C@@H](CCC(N)=O)C(=O)N[C@@H](CCSC)C(=O)N[C@H](C(=O)O)C(C)C` [Peptide 4], the inhibition at 0.05 µM is 38%, the inhibition at 0.5 µM came to 22%, the inhibition at 5 µM was 23% and the inhibition at 50 µM stood at 32%.
`CSCC[C@H](NC(=O)[C@H](CC(N)=O)NC(=O)[C@H](CC(N)=O)NC(=O)[C@@H]1CCCN1C(=O)[C@H](CC(=O)O)NC(=O)CNC(=O)[C@H](CC(N)=O)NC(=O)CNC(=O)[C@H](CC(N)=O)NC(=O)[C@H](CC(C)C)NC(=O)[C@H](C)N)C(=O)N[C@@H](CC(=O)O)C(=O)N[C@@H](CCCCN)C(=O)N[C@@H](C)C(=O)N[C@H](C(=O)N[C@@H](CCCCN)C(=O)N[C@@H](CC(C)C)C(=O)N[C@@H](Cc1ccc(O)cc1)C(=O)O)C(C)C` [Peptide 2]: the inhibition at 0.05 µM was -37%, the inhibition at 0.5 µM was -10%, the inhibition at 5 µM was -20% and the inhibition at 50 µM is -13%.
Consider `CC[C@H](C)[C@H](NC(=O)[C@H](CCC(N)=O)NC(=O)[C@H](CCC(=O)O)NC(=O)[C@H](CS)NC(=O)[C@@H](NC(=O)[C@H](C)NC(=O)[C@@H](N)CS)[C@@H](C)O)C(=O)N[C@@H](C)C(=O)N[C@@H](CC(=O)O)C(=O)N[C@@H](CO)C(=O)N[C@@H](CCC(N)=O)C(=O)N[C@@H](Cc1c[nH]cn1)C(=O)N[C@@H](CCCNC(=N)N)C(=O)N[C@@H](CO)C(=O)N[C@@H](Cc1c[nH]cn1)C(=O)N[C@@H](CCCNC(=N)N)C(=O)N[C@@H](CCC(N)=O)C(=O)N[C@@H](CCSC)C(=O)N[C@H](C(=O)O)C(C)C` [Peptide 6], for which the “50% inhibition (concentration, in words)” value is given as “picomolar range”. For the same compound, the inhibition at 1 µM (1 μM, read-out: % Inhibition (inhibition of polymerase by peptide 6)) was over 100%. Also, the inhibition at 10 µM (10 μM, read-out: % Inhibition (inhibition of polymerase by peptide 6)) worked out at 98%. Also, for the setting “100 μM, read-out: % Inhibition (inhibition of polymerase by peptide 6)”, the inhibition at 100 µM was found to be 81%. For the same compound, the inhibition at 0.001 µM (.001 μM, read-out: % Inhibition (inhibition of polymerase by peptide 6)) amounted to 77%. Moreover, where the note is “.010 μM, read-out: % Inhibition (inhibition of polymerase by peptide 6)”, the inhibition at 0.01 µM is 82%. For the same compound, for the setting “.100 μM, read-out: % Inhibition (inhibition of polymerase by peptide 6)”, the inhibition at 0.1 µM was found to be 99%.
